According to patent publication US20250222028A1, “ENGINEERED IMMUNE CELL PLATFORM” (Cancer Research Technology Limited, priority 2022, published 2025):

Assays:
EL-4 tumour cells = assay: LDH cytotoxicity assay, OT-I CD8+ CTLs co-cultured with Ova peptide-pulsed EL-4 target cells; type: cell-based, murine; details: 1.25 mM BAPTA, LDH assay 3 h
Description: (§1) FIG. 1. L-type Cav channel agonists increase Gli1 expression and enhance specific cell killing by murine CD8+ CTLs. CD8^+ T cells were isolated from the spleen and inguinal lymph nodes of Rag2^−/− OT-I mice, and CTLs were generated. (A) Cells were restimulated on day 9/10 for 3 hours using plate-bound anti-CD3ε in the presence of indicated concentrations of FPL 64176 or carrier control. RNA was extracted and Gli1 expression was assessed by qRT-PCR. Data is n=3 independent experiments. us=unstimulated cells. (B) An LDH cytotoxicity assay was performed using OT-I CTLs. On day 7, CTLs were co-cultured with Ova peptide-pulsed EL-4 cells in the presence of 10 μM FPL 64176 (squares) or carrier control (circles). Data is n=4 independent experiments. (C) Updated experiment of (A). Data is now n=4 independent experiments. Data is normalised to Tbp as a reference gene. 0h=unstimulated cells. (D) Same data as (B) represented differently. […] Error bars indicate SD. p values were calculated using an unpaired two-tailed Student's t test (C) or a two-way ANOVA (B/D). * indicates p<0.05, ** indicates p<0.01, **** indicates p<0.0001.
FIG. 11. […] (A) Quantitative analysis of live cell numbers. […] (E) Quantitative analysis of live cell numbers. […]
To ensure that the use of L-type Cav agonist is not adversely affecting immune cells, general cell functions were assessed. […]

GLI1 [1] = assay: GLI1 expression by qRT-PCR in NK-92 cells; type: cell-based, human; details: stimulated with anti-NKp46 mAb 4 hours, 100 μM, vs carrier control
Description: FIG. 5. L-type Cav channel agonists increase GLI1 expression in the human NK cell line NK-92 and promote specific tumour cell killing. (A) NK-92 cells were stimulated using an anti-NKp46 mAb for 4 hours in the presence of 10 μM FPL 64176, and GLI1 expression was assessed using qRT-PCR. Data is n=4 independent experiments. (B) NK-92 cells were stimulated using an anti-NKp46 mAb for 4 hours in the presence of 100 μM Bay K8644, and GLI1 expression was assessed using qRT-PCR. Data is n=3 independent experiments. (C) An LDH assay was performed to assess specific cell killing of K562 target cells at indicated effector to target ratios in the presence of 10 μM FPL 64176 (right-hand columns) or carrier control (left-hand columns). Error bars indicate SD. Data is from n=3 independent experiments.
To investigate whether L-type Cav channel agonists are also capable of enhancing GLI1 mRNA levels in the human NK cell line NK-92 (a non-Hodgkin's lymphoma cell line, expressing only Cav1.3), NK-92 cells were stimulated using an anti-NKp46 mAb (5 μg/mL) for 4 hours in the presence of either 10 μM FPL 64176 or 100 μM Bay K8644. For reference, Bay K8644 is a structural analogue of nifedipine, and acts as an L-type Cav channel agonist. GLI1 expression was assessed using qRT-PCR. […] These observations confirm that the GLI1-inducing effect of Cav agonists is not merely restricted to the compound FPL 64176. In particular, in NK cells.

Gli1 [2] = assay: Gli1 expression by qRT-PCR in anti-CD3ε-stimulated murine CD8+ CTLs; type: cell-based; details: anti-CD3ε restimulation 6 hours
Description: as §1
FIG. 2. FPL 64176 but not (R)-Baclofen nor Nefiracetam enhance Gli1 expression in murine CD8+ CTLs. Naïve CD8^+ T cells were isolated from the spleens of OT-I Rag2^−/− mice and CTLs were generated. Cells were restimulated using an anti-CD3ε mAb in the presence indicated concentrations of (A) FPL 64176, (B) (R)-Baclofen or (C) Nefiracetam (or carrier control). CTLs were pre-incubated with the relevant pharmacological agents for 40-50 mins prior to stimulation (ensuring sufficient time for the agents, e.g., FPL 64176, to enter the cell. Gli1 expression was assessed by qRT-PCR. Data is n=2 independent experiments. Error bars indicate SD.
To investigate a potential role for L-type Cav channel agonists in modulating CD8+ CTL activation and effector function, CD8+ T cells were isolated from the spleen and inguinal lymph nodes of Rag2−/− OT-I mice and CTLs were generated. […] OT-I mice bear a transgene encoding for a TCR that recognises a chicken ovalbumin (Ova) peptide fragment. Rag2−/− OT-I mice facilitate the isolation of naïve CD8+ T cell populations. Plates were coated using 2.5 μg/mL anti-CD3ε mAb and CD8+ CTLs were stimulated for 3 hours via the TCR in the presence of 5 or 10 μM FPL 64176, an L-type Cav channel agonist, or carrier control. Note that CD8+ CTLs were pre-incubated with FPL 64176 or carrier control for 40-50 mins before stimulation. Gli1 expression was assessed using qRT-PCR.
In brief, naïve CD8+ T cells were isolated from the spleen and inguinal lymph nodes of C57BL/6 wildtype mice and CTLs were generated. […] RNA was extracted from cells and Gli1 expression was assessed by qRT-PCR. […]

O=C(O)CN(CC(=O)O)c1ccccc1OCCOc1ccccc1N(CC(=O)O)CC(=O)O [BAPTA]
immune cell killing (EL-4 tumour cells): depleted

COC(=O)C1=C(C)NC(C)=C([N+](=O)[O-])C1c1ccccc1C(F)(F)F (stereo not shown) [Bay K8644]
GLI1 mRNA levels (GLI1 [1]): increased (almost two-fold)

NC[C@H](CC(=O)O)c1ccc(Cl)cc1 [(R)-Baclofen]
Gli1 expression following TCR activation (Gli1 [2]; indicated concentrations, vs carrier control (FIG. 2)): little effect

Cc1cccc(C)c1NC(=O)CN1CCCC1=O [Nefiracetam]
reduction of Gli1 expression (Gli1 [2]; vs carrier control (FIG. 2C)): around 50%
